A value given as a limit tells only on which side of the number the result lay.

The assay concerns the target T1, Recombinant full length human OGA enzyme (Homo sapiens, UniProt O60502).
T1 construct: Recombinant full length human OGA enzyme was purchased from Origene; purchased Origene
T1 sequence (O60502 1-916): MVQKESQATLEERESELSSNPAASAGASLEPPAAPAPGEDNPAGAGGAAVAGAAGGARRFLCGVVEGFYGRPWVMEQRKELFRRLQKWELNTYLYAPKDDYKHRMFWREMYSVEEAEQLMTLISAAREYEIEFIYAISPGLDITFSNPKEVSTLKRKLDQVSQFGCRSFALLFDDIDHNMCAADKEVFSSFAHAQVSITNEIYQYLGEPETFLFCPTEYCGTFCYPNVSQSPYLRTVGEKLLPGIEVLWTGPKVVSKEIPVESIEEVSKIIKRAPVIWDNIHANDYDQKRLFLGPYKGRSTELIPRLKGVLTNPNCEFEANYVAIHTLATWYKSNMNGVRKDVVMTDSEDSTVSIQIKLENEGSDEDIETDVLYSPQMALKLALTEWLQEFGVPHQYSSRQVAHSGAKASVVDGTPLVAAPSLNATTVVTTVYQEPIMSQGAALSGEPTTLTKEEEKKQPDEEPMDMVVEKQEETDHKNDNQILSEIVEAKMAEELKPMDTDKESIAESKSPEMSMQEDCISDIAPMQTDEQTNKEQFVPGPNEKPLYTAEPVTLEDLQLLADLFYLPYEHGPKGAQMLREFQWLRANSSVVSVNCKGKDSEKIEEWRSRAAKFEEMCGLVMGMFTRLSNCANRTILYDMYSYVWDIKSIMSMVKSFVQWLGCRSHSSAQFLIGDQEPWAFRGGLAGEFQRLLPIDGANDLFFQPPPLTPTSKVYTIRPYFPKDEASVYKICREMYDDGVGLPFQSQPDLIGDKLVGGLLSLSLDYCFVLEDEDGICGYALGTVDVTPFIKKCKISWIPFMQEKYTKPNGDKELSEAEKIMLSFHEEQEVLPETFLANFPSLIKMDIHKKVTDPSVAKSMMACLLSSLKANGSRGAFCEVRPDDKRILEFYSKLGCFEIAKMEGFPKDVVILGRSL
The assay is described as follows: OGA enzyme inhibition biochemical assay. The settings on record: 1 nM OGA, 100 μM 4-MUGlcNAc (Km), pH 6.4, 90 minutes at room temperature, 10-point dose-response from 20 μM. The method in brief:
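1 nM OGA with 100 μM 4-MUGlcNAc (Km) in McIlvaine buffer pH 6.4, 0.01% BSA, 90 min at room temperature; quenched with 3M glycine pH 10, fluorescence Ex 355/Em 460 nm. 10-point, 4-fold dilutions from 20 μM; 4-parameter variable-slope fit.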
Consider `CC(=O)Nc1nc(F)c(CN2C[C@H](Oc3nc4ncccc4o3)C[C@@H]2C)s1` [Example 158, N-(4-fluoro-5-(((2S,4R)-2-methyl-4-(oxazolo[4,5-b]pyridin-2-yloxy)pyrrolidin-1-yl)methyl)thiazol-2-yl)acetamide], for which the IC50 – broadly, the concentration that inhibits the measured activity by half – was below 1 nM.
Take `CC(=O)Nc1ncc(CN2C[C@H](Oc3cccc4cnn(C)c34)C[C@@H]2C)s1` [Example 160, N-(5-(((2S,4R)-2-methyl-4-((1-methyl-1H-indazol-7-yl)oxy)pyrrolidin-1-yl)methyl)thiazol-2-yl)acetamide]: the IC50 is 2.4 nM.
Under `CC(=O)Nc1ncc(CN2C[C@H](Oc3ccn4nccc4n3)C[C@@H]2C)s1` [Example 61, N-(5-(((2S,4R)-2-methyl-4-(pyrazolo[1,5-a]pyrimidin-5-yloxy)pyrrolidin-1-yl)methyl)thiazol-2-yl)acetamide] stands below 1 nM.
Regarding `CC(=O)Nc1nc(F)c(CN2C[C@H](Oc3nccn4ccnc34)C[C@@H]2C)s1` [Example 96, N-(4-fluoro-5-(((2S,4R)-4-(imidazo[1,2-a]pyrazin-8-yloxy)-2-methylpyrrolidin-1-yl)methyl)thiazol-2-yl)acetamide], the half-maximal inhibitory concentration (IC50) was below 1 nM.
`CC(=O)Nc1nc(F)c(CN2C[C@H](Oc3ncc4ncn(C)c4n3)C[C@@H]2C)s1` [Example 113, N-(4-fluoro-5-(((2S,4R)-2-methyl-4-((9-methyl-9H-purin-2-yl)oxy)pyrrolidin-1-yl)methyl)thiazol-2-yl)acetamide]: the IC50 was below 1 nM.
With `CC(=O)Nc1nc(F)c(CN2C[C@H](Oc3ccn4nc(C)cc4n3)C[C@@H]2C)s1` [Example 112, N-(4-fluoro-5-(((2S,4R)-2-methyl-4-((2-methylpyrazolo[1,5-a]pyrimidin-5-yl)oxy)pyrrolidin-1-yl)methyl)thiazol-2-yl)acetamide], the concentration for half-maximal inhibition (IC50) is below 1 nM.
Regarding `CC(=O)Nc1ncc(CN2C[C@H](Oc3ncnc4cc(OC(F)F)ccc34)C[C@@H]2C)s1` [Example 14, N-(5-(((2S,4R)-4-((7-(difluoromethoxy)quinazolin-4-yl)oxy)-2-methylpyrrolidin-1-yl)methyl)thiazol-2-yl)acetamide], the IC50 is below 1 nM.
On to `CC(=O)Nc1nc(F)c(CN2C[C@H](Oc3ccnc4ccoc34)C[C@@H]2C)s1` [Example 47, N-(4-fluoro-5-(((2S,4R)-4-(furo[3,2-b]pyridin-7-yloxy)-2-methylpyrrolidin-1-yl)methyl)thiazol-2-yl)acetamide], for which the concentration for half-maximal inhibition (IC50) is below 1 nM.
For the compound `CC(=O)Nc1ncc(CN2C[C@H](Oc3nccc4ccsc34)C[C@@H]2C)s1` [Example 11, N-(5-(((2S,4R)-2-methyl-4-(thieno[2,3-c]pyridin-7-yloxy)pyrrolidin-1-yl)methyl)thiazol-2-yl)acetamide], the concentration for half-maximal inhibition (IC50) was below 1 nM.
For `CC(=O)Nc1nc(F)c(CN2C[C@H](Oc3nccc4nccnc34)C[C@@H]2C)s1` [Example 115, N-(4-fluoro-5-(((2S,4R)-2-methyl-4-(pyrido[3,4-b]pyrazin-5-yloxy)pyrrolidin-1-yl)methyl)thiazol-2-yl)acetamide], the IC50 amounted to 3.8 nM.

(Values after patent US12522595B2, “Bicyclic ether O-glycoprotein-2-acetamido-2-deoxy-3-D-glucopyranosidase inhibitors” (BIOGEN MA INC., priority 2019, dated 2026).)
